Measurements taken from patent US9943516B2, “Inhibitors of IRAK4 activity” (MERCK SHARP & DOHME CORP., priority 2014, dated 2018).

Biological target: IRAK4 (Homo sapiens (Human), UniProt Q9NWZ3)
Assay: IRAK4 Kinase Assay (IMAP fluorescence polarization)
Assay type: biochemical
Settings: 0.5 nM GST tagged IRAK4, 100 μM ATP, 30 minutes at 25° C.
Procedure: The kinase activity of IRAK4 is determined by its ability to catalyze the phosphorylation of a fluorescent polypeptide substrate. The extent of phosphorylation is measured using the IMAP technology (Molecular Devices) where the phosphorylated fluorescent substrate binds to the large M(III)-based nanoparticles which reduces the rotational speed of the substrate and thus increases its fluorescent polarization (FP).
20 μL reaction mixture contains 10 mM TriHCl, pH 7.2, 0.5 nM GST tagged IRAK4 (SignalChem), 100 nM fluorescent peptide substrate (RP7030, Molecular Devices), 100 μM ATP, 1 mM DDT, 1 mM MgCl2, and 0.01% Tween 20. The reaction is initiated by the addition of ATP. After incubation for 30 minutes at 25° C., 60 μL of Progressive IMAP Reagent (Molecular Devices) is added to stop the reaction. Change in RP7030's FP is determined by a FP reader (Analyst HT, LJL BioSystems).

Chain of IRAK4 (Q9NWZ3 whole entry): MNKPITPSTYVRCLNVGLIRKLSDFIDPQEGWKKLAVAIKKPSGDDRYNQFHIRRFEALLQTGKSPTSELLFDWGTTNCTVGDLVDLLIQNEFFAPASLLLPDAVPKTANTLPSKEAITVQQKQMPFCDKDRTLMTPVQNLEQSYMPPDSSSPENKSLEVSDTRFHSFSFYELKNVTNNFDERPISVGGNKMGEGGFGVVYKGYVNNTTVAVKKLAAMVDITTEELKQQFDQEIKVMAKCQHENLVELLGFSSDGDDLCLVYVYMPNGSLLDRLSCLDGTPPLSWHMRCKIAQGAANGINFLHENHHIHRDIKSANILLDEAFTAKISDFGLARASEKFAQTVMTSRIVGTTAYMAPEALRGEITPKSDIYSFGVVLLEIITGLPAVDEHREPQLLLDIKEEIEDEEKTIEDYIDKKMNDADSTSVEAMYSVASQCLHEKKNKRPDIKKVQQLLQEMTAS

Compound | IC50 [µM]
CC1(c2ccc3ncnc(N[C@H]4CC[C@H](N5CCOCC5)CC4)c3c2)CC1 [Example 1-5, 6-(1-methylcyclopropyl)-N-(trans-4-morpholin-4-ylcyclohexyl)quinazolin-4-amine] | 0.052
c1nc(N[C@H]2CC[C@H](N3CCOCC3)CC2)c2cc(C3CCCC3)ccc2n1 [Example 1-7, 6-cyclopentyl-N-(trans-4-morpholin-4-ylcyclohexyl)quinazolin-4-amine] | 0.005
c1nc(N[C@H]2CC[C@H](N3CCOCC3)CC2)c2cc(C3CCC3)ccc2n1 [Example 1-6, 6-cyclobutyl-N-(trans-4-morpholin-4-ylcyclohexyl)quinazolin-4-amine] | 0.003
c1nc(N[C@H]2CC[C@H](N3CCOCC3)CC2)c2cc(C3CCCCC3)ccc2n1 [Example 1-8, 6-cyclohexyl-N-(trans-4-morpholin-4-ylcyclohexyl)quinazolin-4-amine] | 0.019
Fc1cc2ncnc(N[C@H]3CC[C@H](N4CCOCC4)CC3)c2cc1C1CC1 [Example 1-4, 6-cyclopropyl-7-fluoro-N-(trans-4-morpholin-4-ylcyclohexyl)quinazolin-4-amine] | 0.012
Cc1c(C2CC2)ccc2ncnc(N[C@H]3CC[C@H](N4CCOCC4)CC3)c12 [Example 1-1, 6-Cyclopropyl-5-methyl-N-(trans-4-morpholinocyclohexyl)quinazolin-4-amine] | 0.345
CN(C)C1CCC(Nc2ncnc3ccc(C4CC4)cc23)CC1 (stereo not shown) [Example 1-2, N′-(6-cyclopropylquinazolin-4-yl)-N,N-dimethylcyclohexane-1,4-diamine] | 0.012
c1nc(N[C@H]2CC[C@H](N3CCOCC3)CC2)c2cc(C3CC3)ccc2n1 [Example 1-3, 6-cyclopropyl-N-(trans-4-morpholin-4-ylcyclohexyl)quinazolin-4-amine] | 0.005

The remaining lines, values ahead:

IC50 [µM] | Compound
0.071 | FC1(F)CCC(c2ccc3ncnc(N[C@H]4CC[C@H](N5CCOCC5)CC4)c3c2)CC1 [Example 3-3, 6-(4,4-difluorocyclohexyl)-N-(trans-4-morpholin-4-ylcyclohexyl)quinazolin-4-amine]
0.018 | c1nc(N[C@H]2CC[C@H](N3CCOCC3)CC2)c2cc(C3CCOC3)ccc2n1 (stereo partly drawn) [Example 2-2, N-(trans-4-morpholin-4-ylcyclohexyl)-6-(tetrahydrofuran-3-yl)quinazolin-4-amine]
0.055 | OC1CCCC(c2ccc3ncnc(N[C@H]4CC[C@H](N5CCOCC5)CC4)c3c2)C1 (stereo partly drawn) [Example 4-2, 3-(4-(((trans)-4-Morpholinocyclohexyl)amino)quinazolin-6-yl)cyclohexanol]
0.032 | c1nc(N[C@H]2CC[C@H](N3CCOCC3)CC2)c2cc(C3COC3)ccc2n1 [Example 2-1, N-((trans)-4-morpholinocyclohexyl)-6-(oxetan-3-yl)quinazolin-4-amine]
0.169 | N#CC1CCC(c2ccc3ncnc(N[C@H]4CC[C@H](N5CCOCC5)CC4)c3c2)CC1 (stereo partly drawn) [Example 3-2, 4-{4-[(trans-4-morpholin-4-ylcyclohexyl)amino]quinazolin-6-yl}cyclohexanecarbonitrile]
0.098 | O=C(O)C1CCC(c2ccc3ncnc(N[C@H]4CC[C@H](N5CCOCC5)CC4)c3c2)CC1 (stereo partly drawn) [Example 3-6, 4-{4-[(trans-4-morpholin-4-ylcyclohexyl)amino]quinazolin-6-yl}cyclohexanecarboxylic acid]
0.013 | c1nc(N[C@H]2CC[C@H](N3CCOCC3)CC2)c2cc(C3CCCOC3)ccc2n1 (stereo partly drawn) [Example 3-5, N-(trans-4-morpholin-4-ylcyclohexyl)-6-(tetrahydro-2H-pyran-3-yl)quinazolin-4-amine]
0.091 | c1nc(N[C@H]2CC[C@H](N3CCOCC3)CC2)c2cc(C3CCOCC3)ccc2n1 [Example 3-4, N-(trans-4-morpholin-4-ylcyclohexyl)-6-(tetrahydro-2H-pyran-4-yl)quinazolin-4-amine]
0.011 | OC1CCCC(c2ccc3ncnc(N[C@H]4CC[C@H](N5CCOCC5)CC4)c3c2)C1 (single isomer, unassigned) [Example 4-3, 3-(4-(((trans)-4-Morpholinocyclohexyl)amino)quinazolin-6-yl)cyclohexanol]
0.17 | c1nc(N[C@H]2CC[C@H](N3CCOCC3)CC2)c2cc(C3CCCO3)ccc2n1 (stereo partly drawn) [Example 3-1, N-((trans)-4-morpholinocyclohexyl)-6-(tetrahydrofuran-2-yl)quinazolin-4-amine]
0.039 | OC1CCCC(c2ccc3ncnc(N[C@H]4CC[C@H](N5CCOCC5)CC4)c3c2)C1 (single isomer, unassigned) [Example 4-1, 3-(4-(((trans)-4-Morpholinocyclohexyl)amino)quinazolin-6-yl)cyclohexanol]
